In publication PMC6556873, “Rapid Covalent-Probe Discovery by Electrophile-Fragment Screening” (Journal of the American Chemical Society, 2019):
Read-outs that look alike come from different tables or passages of the source.

Assays:
[1] = target: T1, BSA (Bos taurus, UniProt P02769); parameters: Intact protein LC/MS covalent labelling, fragments in pools of five, 200 uM each, 4 °C; conditions: 24 h, 4 °C, pool of five; 200 µM; covalent
T1 construct: gene ALB
Description: (§1) Incubations were performed at 200 μM for each compound and 2 μM of protein (10 μM for BSA) for 24 h at 4 °C with moderate shaking. Incubation buffers varied among proteins (PBS pH 7.4 for QSOX1 and BSA; 10 mM HEPES pH 7.5, 0.3 M NaCl, 0.5 mM TCEP for PCAF, UPS8, and NUDT7; […]; 10 mM Na2HPO4 pH 7.5 100 mM NaCl 5 mM β-mercaptoethanol for NV3CP; 20 mM Na phosphate pH 7.5 for NNMT; […]. The reaction was stopped by quenching with formic acid, 0.4% final concentration. Each protein was incubated with the electrophilic library in pools of five compounds per well. The pool’s composition maximized the difference in mass between fragments in the same well. Incubations were performed with each fragment at 200 μM, for 24 h at 4 °C, to allow the screening of proteins that are not stable for long time periods at higher temperatures. Following incubation, we used intact protein [compound left out] chromatography/mass spectrometry (LC/MS) to identify the fragments and quantify their labeling (Figure 3A). […] There was good agreement between the percent of labeling of NUDT7 by 100 random individual compounds and that obtained in pools of five (R^2=0.78; Figure S6 and Data set 2 in the Supporting Information).

[2] = target: T2, NUDT7 (Homo sapiens, UniProt P0C024); parameters: Intact protein LC/MS covalent labelling, fragments in pools of five, 200 uM each, 4 °C; conditions: 24 h, 4 °C, pool of five; 200 µM; covalent
T2 construct: residues 14-235, E. coli, pNIC28-Bsa4, N-terminal His6 tag removed by TEV, construct 26672 Da
T2 sequence (P0C024 14-235): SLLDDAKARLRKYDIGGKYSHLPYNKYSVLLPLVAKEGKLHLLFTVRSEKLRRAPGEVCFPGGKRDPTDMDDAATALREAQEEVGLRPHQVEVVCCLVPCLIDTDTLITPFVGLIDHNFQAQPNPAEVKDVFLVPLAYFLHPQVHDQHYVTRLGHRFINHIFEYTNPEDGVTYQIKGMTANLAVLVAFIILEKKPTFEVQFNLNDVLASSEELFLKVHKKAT
Description: as §1

[3] = target: T3, OTUB2 (OTUB2A) (Homo sapiens, UniProt Q96DC9); parameters: Intact protein LC/MS covalent labelling, fragments in pools of five, 200 uM each, 4 °C; conditions: 24 h, 4 °C, pool of five; 200 µM; covalent
T3 construct: full length residues 1-234, E. coli BL21(DE3)-R3, His tag removed by TEV, construct 27312 Da
T3 sequence (Q96DC9 1-234): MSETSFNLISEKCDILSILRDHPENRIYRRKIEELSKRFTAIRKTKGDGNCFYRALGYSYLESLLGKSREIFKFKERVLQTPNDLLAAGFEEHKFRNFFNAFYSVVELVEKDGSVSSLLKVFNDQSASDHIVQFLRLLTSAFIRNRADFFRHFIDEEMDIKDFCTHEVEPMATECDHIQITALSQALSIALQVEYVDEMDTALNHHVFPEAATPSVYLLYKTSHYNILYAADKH
Description: as §1

[4] = target: T4, PCAF (Homo sapiens, UniProt Q92831); parameters: Intact protein LC/MS covalent labelling, fragments in pools of five, 200 uM each, 4 °C; conditions: 24 h, 4 °C, pool of five; 200 µM; covalent
T4 construct: gene KAT2B
T4 sequence (Q92831 whole entry, the tested form may be a part): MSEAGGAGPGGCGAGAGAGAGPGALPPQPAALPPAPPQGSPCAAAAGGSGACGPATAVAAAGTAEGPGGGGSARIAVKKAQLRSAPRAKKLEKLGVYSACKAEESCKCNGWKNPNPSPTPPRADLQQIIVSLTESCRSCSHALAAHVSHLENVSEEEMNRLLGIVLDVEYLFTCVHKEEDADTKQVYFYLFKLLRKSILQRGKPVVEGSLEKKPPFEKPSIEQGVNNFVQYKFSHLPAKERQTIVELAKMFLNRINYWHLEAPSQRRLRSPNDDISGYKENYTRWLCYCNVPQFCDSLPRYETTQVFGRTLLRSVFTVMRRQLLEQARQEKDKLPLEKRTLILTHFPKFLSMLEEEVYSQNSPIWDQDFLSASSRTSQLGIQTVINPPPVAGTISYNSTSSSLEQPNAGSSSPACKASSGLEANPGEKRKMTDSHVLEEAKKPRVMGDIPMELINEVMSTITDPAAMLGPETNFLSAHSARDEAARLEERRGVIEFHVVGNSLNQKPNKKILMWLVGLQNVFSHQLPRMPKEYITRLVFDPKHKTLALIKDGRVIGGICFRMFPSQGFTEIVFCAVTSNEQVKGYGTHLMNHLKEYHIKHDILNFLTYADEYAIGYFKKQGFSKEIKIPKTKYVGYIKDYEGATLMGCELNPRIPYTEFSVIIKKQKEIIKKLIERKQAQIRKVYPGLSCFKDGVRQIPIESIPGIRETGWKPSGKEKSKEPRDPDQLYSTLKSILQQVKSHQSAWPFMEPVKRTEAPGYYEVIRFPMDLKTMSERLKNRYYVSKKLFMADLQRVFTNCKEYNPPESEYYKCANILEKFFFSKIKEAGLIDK
Description: as §1

[5] = in vitro; parameters: species or system CCD841, HEK293; conditions: human, hb2 cells, read-out: HB-2 Cells Viability (%)
[6] = in vitro; parameters: species or system HB2, HEK293; conditions: human, ccd841 cells
[7] = in vitro; parameters: species or system HB2, CCD841; conditions: human, hek293 cells

T1 sequence (P02769 whole entry, the tested form may be a part): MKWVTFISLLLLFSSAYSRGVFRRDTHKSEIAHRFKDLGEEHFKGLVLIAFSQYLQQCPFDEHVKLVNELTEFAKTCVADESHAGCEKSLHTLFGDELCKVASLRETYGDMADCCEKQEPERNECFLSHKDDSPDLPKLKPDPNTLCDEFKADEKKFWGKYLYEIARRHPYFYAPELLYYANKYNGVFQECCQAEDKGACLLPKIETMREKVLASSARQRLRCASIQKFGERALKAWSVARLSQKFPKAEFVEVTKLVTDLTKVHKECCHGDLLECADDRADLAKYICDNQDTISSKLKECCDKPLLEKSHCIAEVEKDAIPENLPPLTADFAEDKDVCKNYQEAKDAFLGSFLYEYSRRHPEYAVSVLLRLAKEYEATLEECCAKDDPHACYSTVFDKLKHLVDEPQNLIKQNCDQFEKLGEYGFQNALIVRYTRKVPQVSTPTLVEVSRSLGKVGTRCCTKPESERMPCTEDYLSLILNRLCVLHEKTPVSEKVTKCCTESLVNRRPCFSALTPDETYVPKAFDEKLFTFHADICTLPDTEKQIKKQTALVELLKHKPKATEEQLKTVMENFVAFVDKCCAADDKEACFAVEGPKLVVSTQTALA

Row | Compound | BSA [1] | NUDT7 [2] | OTUB2 [3] | PCAF [4] | viability at 48 h, 10 µM [5] | viability at 48 h, 10 µM [6] | viability at 48 h, 10 µM [7]
1 | CCN(C(=O)CCl)C1CCS(=O)(=O)C1 (stereo not drawn) [PCM-0102105] | 0 | 0 | 0 | 0 | 95% | 68.1% | 54.9%
2 | C=CC(=O)NC(=O)NC12CC3CC(CC(C3)C1)C2 [PCM-0102106] | 0 | 0.79 | 0 | 0 | 26.6% | 80.9% | 42%
3 | N#Cc1c2c(n(-c3ccccc3)c1NC(=O)CCl)CCCC2 [PCM-0102107] | 0 | 0.46 | 0.08 | 0 | 18% | 53.9% | 7.6%
4 | O=C(CCl)NC1CCCCNC1=O (stereo not drawn) [PCM-0102109] | 0 | 0 | 0 | 0 | 94.1% | 103% | 109%
5 | CC(NC(=O)CCl)c1ccccc1Cl (stereo not drawn) [PCM-0102110] | 0 | 0 | 0.25 | 0 | 70.8% | 74.2% | 65.7%
6 | O=C(CCl)Nc1ccc(Cl)c(Cl)c1 [PCM-0102112] | 0 | 0.18 | 0.3 | 0 | 2% | 26% | 1.4%
7 | CC(=O)Nc1ccc(NC(=O)CCl)cc1 [PCM-0102114] | 0 | 0 | 0 | 0 | 69.9% | 57.7% | 56%
8 | Cc1cccc(NC(=O)CCl)c1 [PCM-0102116] | 0 | 0 | 0.11 | 0 | 33.7% | 66.4% | 9%
9 | CC(NC(=O)CCl)c1cc2ccccc2o1 (stereo not drawn) [PCM-0102117] | 0 | 0.12 | 0.41 | 0 | 71% | 70.7% | 62.9%
10 | O=C(CCl)Nc1ccc(Cl)cc1 [PCM-0102120] | 0 | 0.18 | 0.23 | 0 | 16.7% | 55.2% | 2.7%
11 | O=C(CCl)N1CCN(S(=O)(=O)c2ccc(Cl)s2)CC1 [PCM-0102121] | 0 | 0.15 | 0 | 0 | 1.7% | 20.6% | 2%
12 | O=C(CCl)NC(=O)NCc1ccccc1 [PCM-0102122] | 0 | 0 | 0 | 0 | 54.8% | 76.9% | 65.5%
13 | O=C(CCl)N1CCc2sccc2C1 [PCM-0102123] | 0 | 0.14 | 0.39 | 0 | 9.2% | 73.1% | 6.6%
14 | O=C(CCl)N1CCN(c2ccc(Cl)cc2[N+](=O)[O-])CC1 [PCM-0102125] | 0 | 0.29 | 0 | 0 | 2.3% | 8.1% | 1.4%
15 | O=C(CCl)Nc1ccc(Cl)cc1C(=O)O [PCM-0102127] | 0 | 0 | 0.1 | 0 | 100% | 104% | 86.8%
16 | CC(=O)N1CCc2cc(NC(=O)CCl)ccc21 [PCM-0102129] | 0 | 0.07 | 0.31 | 0 | 33.4% | 50.6% | 5.9%

More lines, main results first:

Row | BSA [1] | NUDT7 [2] | OTUB2 [3] | PCAF [4] | Compound | viability at 48 h, 10 µM [5] | viability at 48 h, 10 µM [6] | viability at 48 h, 10 µM [7]
17 | 0 | 0 | 0 | 0 | Cc1c(Cl)cccc1NC(=O)CCl [PCM-0102130] | 26% | 48.1% | 4.9%
18 | 0 | 0 | 0 | 0 | Cc1ccc(-n2nc(C)c(NC(=O)CCl)c2C)cc1 [PCM-0102131] | 63.8% | 26.3% | 30.1%
19 | 0 | 0 | 0 | 0 | CC(C)c1cc(NC(=O)CCl)on1 [PCM-0102132] | 70.9% | 69.9% | 70.6%
20 | 0 | 0 | 0.15 | 0 | Cl.O=C(CCl)N1CCN(CC(=O)N2CCOCC2)CC1 [PCM-0102133] | 96.6% | 94.8% | 92.7%
21 | 0 | 0.1 | 0.11 | 0 | Cc1cc([N+](=O)[O-])ccc1NC(=O)CCl [PCM-0102134] | 44.3% | 60.9% | 18.1%
22 | 0 | 0 | 0 | 0 | Cl.O=C(CCl)N1CCN(Cc2c(F)cccc2Cl)CC1 [PCM-0102137] | 20.8% | 59.5% | 25.8%
23 | 0 | 0 | 0 | 0 | COc1ccc(NC(=O)CCl)cn1 [PCM-0102140] | 62% | 63.7% | 44.3%
24 | 0 | 0 | 0 | 0 | CS(=O)(=O)c1ccccc1NC(=O)CCl [PCM-0102141] | 96.8% | 98.2% | 96.8%
25 | 0 | 0.09 | 1 | 0 | O=C(CCl)NNC(=O)c1cc2c(s1)CCCC2 [PCM-0102142] | 49% | 62.6% | 52.6%
26 | 0 | 0.39 | 0.05 | 0 | COC(=O)c1c(NC(=O)CCl)sc2c1CCCC2 [PCM-0102143] | 31.6% | 68.1% | 8.6%
27 | 0.12 | 0.32 | 0 | 0 | O=C(CCl)Nc1nc2c(F)c(F)c(F)cc2s1 [PCM-0102144] | 90.9% | 57.9% | 83.1%
